Numbers after ± are expanded uncertainties.

The conditions of the series: Crystal; visual observation.
For the compound `CC(C)(C)O` [2-methylpropan-2-ol], the Normal melting temperature worked out at 25.6 ± 0.4 °C.

Take `Oc1cccc(Cl)c1` [3-chlorophenol]: the Normal melting temperature was 32.4 ± 0.4 °C.

As to `Oc1ccc(Cl)cc1` [4-chlorophenol], the Normal melting temperature was found to be 42.5 ± 0.4 °C.

The record behind these values is the NIST ThermoML archive (doi:10.1016/j.fluid.2005.08.021).
